In the data set the test system is dairy cows. The data set can be described thus: In vivo protection and transfer of t10c12-CLA to milk, milk fat content. The note with it: 7 g per cow daily; FIG. 9. Here is the method: Eight dairy cows in mid-lactation (100 to 220 days in milk, 562 to 712 kg live weight, minimum daily production of 20 to 25 kg milk) were used in a sequential set-up to test the in vivo protection of fatty acids and transfer to the milk. Two supplements were tested: First, a protected fatty acid emulsion, prepared according to Example 1, was administered (n=4). This product consisted of a protein extract from potato tuber peels, which was further used to emulsify a commercially available triacylglyceride mixture of cis-9, trans-11 and trans-10, cis-12 conjugated linoleic acid (t10c12-CLA) (TONALIN® TG80, BASF-AG, Ludwigshafen, Germany) and protected against rumen degradation through the creation of protein-phenol complexes by addition of 4-methylcatechol. The degree of rumen bypass of t10c12 CLA was assessed in vitro as described in Example 1 before the start of the in vivo trial. […]
The experimental period consisted of six weeks. […] Milk fat content was determined by Fourier Transform Infrared analysis (FTIR Delta Instruments, Drachten, The Netherlands) and fatty acids determined as described by Jorjong et al.^(19) Milk fat is presented as percentage of the total mass of milk produced per day and t10c12-CLA as g per 100 g of fatty acids detected.

For the compound `CCCCC/C=C\C=C\CCCCCCCCC(=O)O` [t10c12-CLA, trans-10, cis-12 conjugated linoleic acid], the “transfer of dietary t10c12-CLA to the milk” value is reported as “up to 5%”.

(Values after US20160316791A1, “METHOD TO PROTECT LIPOPHILIC NUTRIENTS AGAINST RUMINAL DEGRADATION” (UNIVERSITEIT GENT, priority 2013, published 2016).)
